Results reported in patent publication EP4722207A1, “OXOISOINDOLINYL-SUBSTITUTED TETRAHYDROPYRIMIDINEDIONE DERIVATIVE AND USE THEREOF” (Gluetacs Therapeutics (Shanghai) Co., Ltd., priority 2023, dated 2024).

How the values were obtained:
Assay type in all cases: cell-based
Details in all cases: compounds at 50 nM and 500 nM, 24 hours
WEE1 = biological target: T1, WEE1 (Homo sapiens, UniProt P30291+Q96SW2); test: Western-blot assay, substrate protein degradation in hPBMCs: WEE1
T1 construct: effects of the compounds of the present disclosure on the expression of target proteins in cells; endogenous in cells; host or cells: human PBMCs (hPBMCs)
T1 sequence (P30291 whole entry): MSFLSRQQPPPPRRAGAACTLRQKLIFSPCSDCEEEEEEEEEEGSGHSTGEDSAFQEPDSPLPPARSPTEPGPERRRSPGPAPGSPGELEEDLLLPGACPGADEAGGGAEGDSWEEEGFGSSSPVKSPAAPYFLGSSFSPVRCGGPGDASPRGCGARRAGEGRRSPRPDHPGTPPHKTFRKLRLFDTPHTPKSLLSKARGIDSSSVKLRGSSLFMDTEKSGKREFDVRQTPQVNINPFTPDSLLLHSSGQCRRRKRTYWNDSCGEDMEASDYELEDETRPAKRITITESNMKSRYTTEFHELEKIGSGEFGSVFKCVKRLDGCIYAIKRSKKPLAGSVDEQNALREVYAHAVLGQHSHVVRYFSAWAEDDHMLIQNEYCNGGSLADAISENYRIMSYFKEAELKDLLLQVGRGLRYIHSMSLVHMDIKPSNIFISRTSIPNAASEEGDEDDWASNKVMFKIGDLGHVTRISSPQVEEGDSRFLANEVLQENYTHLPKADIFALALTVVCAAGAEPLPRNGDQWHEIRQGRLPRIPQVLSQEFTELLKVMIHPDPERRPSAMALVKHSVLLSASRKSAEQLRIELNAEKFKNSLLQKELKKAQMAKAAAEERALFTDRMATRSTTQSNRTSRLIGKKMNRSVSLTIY
T1 sequence (Q96SW2 whole entry): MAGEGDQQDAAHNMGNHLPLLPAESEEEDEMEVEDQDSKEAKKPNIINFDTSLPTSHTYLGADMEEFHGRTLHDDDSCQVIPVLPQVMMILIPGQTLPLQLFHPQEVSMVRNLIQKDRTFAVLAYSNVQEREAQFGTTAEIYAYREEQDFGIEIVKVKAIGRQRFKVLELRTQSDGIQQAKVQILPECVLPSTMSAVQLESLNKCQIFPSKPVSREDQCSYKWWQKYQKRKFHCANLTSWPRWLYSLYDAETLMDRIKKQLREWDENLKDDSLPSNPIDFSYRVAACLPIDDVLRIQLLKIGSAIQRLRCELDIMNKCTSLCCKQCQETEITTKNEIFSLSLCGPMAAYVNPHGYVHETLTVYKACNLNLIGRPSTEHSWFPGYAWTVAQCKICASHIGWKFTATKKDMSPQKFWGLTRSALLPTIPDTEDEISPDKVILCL
T1 sequence (Q16531 whole entry partner): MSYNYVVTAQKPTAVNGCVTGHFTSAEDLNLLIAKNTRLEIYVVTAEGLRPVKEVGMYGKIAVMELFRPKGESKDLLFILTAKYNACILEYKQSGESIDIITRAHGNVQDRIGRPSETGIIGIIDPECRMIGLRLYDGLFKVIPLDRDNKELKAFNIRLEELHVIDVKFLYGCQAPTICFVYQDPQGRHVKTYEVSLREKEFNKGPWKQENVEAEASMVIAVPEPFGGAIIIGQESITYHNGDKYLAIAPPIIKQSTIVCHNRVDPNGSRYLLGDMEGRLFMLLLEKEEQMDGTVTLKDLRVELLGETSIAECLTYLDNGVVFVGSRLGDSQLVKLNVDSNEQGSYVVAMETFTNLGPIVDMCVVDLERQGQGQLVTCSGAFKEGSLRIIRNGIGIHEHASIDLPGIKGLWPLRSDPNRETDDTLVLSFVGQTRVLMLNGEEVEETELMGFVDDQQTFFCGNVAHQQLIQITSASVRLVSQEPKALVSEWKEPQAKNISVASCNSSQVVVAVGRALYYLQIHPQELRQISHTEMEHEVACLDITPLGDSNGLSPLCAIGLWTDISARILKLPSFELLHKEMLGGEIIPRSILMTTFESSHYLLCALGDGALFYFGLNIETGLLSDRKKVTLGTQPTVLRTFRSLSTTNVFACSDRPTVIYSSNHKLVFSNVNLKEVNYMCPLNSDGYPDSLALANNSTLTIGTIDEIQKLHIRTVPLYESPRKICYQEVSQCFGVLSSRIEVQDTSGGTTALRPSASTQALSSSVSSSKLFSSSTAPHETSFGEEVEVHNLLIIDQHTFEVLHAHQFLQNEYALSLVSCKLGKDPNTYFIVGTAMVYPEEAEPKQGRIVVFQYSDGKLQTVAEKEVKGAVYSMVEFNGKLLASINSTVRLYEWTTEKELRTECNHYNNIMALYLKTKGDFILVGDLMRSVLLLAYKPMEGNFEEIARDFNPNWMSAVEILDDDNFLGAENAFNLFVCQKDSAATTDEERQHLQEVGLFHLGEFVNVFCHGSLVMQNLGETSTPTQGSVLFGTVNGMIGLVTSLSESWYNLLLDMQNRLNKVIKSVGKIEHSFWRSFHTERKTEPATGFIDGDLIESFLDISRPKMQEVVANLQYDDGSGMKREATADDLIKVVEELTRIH

IKZF1 = biological target: T2, IKZF1 (Homo sapiens, UniProt Q13422+Q96SW2); test: Western-blot assay, substrate protein degradation in hPBMCs: IKZF1
T2 construct: effects of the compounds of the present disclosure on the expression of target proteins in cells; endogenous in cells; host or cells: human PBMCs (hPBMCs)
T2 sequence (Q13422 whole entry): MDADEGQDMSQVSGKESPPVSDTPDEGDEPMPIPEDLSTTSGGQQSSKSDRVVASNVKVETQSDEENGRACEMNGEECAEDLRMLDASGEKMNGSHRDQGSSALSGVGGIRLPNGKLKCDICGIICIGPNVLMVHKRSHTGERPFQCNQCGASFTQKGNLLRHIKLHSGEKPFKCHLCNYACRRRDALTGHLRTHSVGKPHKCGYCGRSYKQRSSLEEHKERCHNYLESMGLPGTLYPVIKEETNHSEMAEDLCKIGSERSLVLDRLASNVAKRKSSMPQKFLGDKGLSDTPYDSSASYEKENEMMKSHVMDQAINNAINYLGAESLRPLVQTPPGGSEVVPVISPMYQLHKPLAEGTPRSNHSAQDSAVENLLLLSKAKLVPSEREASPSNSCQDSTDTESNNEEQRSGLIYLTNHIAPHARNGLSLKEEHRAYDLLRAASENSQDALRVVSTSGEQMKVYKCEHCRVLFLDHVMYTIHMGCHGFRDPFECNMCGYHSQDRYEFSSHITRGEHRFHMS
T2 sequence (Q96SW2 whole entry): as the sequence (Q96SW2 whole entry) above
T2 sequence (Q16531 whole entry partner): as the sequence (Q16531 whole entry partner) above

IKZF2 = biological target: T3, IKZF2 (Homo sapiens, UniProt Q96SW2+Q9UKS7); test: Western-blot assay, substrate protein degradation in hPBMCs: IKZF2
T3 construct: effects of the compounds of the present disclosure on the expression of target proteins in cells; endogenous in cells; host or cells: human PBMCs (hPBMCs)
T3 sequence (Q9UKS7 whole entry): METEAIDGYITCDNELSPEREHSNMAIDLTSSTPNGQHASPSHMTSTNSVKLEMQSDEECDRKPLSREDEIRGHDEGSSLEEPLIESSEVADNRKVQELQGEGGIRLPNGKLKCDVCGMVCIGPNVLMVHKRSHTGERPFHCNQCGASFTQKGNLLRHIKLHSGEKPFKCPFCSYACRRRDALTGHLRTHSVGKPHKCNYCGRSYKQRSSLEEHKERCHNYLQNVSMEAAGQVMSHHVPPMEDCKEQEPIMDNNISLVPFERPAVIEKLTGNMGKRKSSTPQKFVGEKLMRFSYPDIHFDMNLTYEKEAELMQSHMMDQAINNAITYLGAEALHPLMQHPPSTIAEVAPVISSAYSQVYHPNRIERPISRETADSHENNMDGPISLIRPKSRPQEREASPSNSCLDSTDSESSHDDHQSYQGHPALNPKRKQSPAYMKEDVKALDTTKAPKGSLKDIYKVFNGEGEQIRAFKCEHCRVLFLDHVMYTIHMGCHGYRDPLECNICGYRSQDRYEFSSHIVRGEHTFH
T3 sequence (Q96SW2 whole entry): as the sequence (Q96SW2 whole entry) above
T3 sequence (Q16531 whole entry partner): as the sequence (Q16531 whole entry partner) above

IKZF3 = biological target: T4, IKZF3 (Homo sapiens, UniProt Q96SW2+Q9UKT9); test: Western-blot assay, substrate protein degradation in hPBMCs: IKZF3
T4 construct: effects of the compounds of the present disclosure on the expression of target proteins in cells; endogenous in cells; host or cells: human PBMCs (hPBMCs)
T4 sequence (Q9UKT9 whole entry): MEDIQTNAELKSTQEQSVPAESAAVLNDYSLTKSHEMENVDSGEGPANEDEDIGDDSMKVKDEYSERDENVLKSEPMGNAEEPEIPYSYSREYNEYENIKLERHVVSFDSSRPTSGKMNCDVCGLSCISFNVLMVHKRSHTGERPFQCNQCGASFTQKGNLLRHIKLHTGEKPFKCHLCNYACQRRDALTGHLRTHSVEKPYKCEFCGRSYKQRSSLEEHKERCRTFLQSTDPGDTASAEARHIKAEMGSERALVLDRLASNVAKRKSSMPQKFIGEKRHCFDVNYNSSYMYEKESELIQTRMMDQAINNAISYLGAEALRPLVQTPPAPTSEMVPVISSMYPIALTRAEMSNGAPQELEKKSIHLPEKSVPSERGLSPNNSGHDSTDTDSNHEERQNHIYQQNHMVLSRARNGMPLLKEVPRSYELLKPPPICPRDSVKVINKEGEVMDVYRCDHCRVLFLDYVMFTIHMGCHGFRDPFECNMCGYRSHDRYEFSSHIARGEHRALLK
T4 sequence (Q96SW2 whole entry): as the sequence (Q96SW2 whole entry) above
T4 sequence (Q16531 whole entry partner): as the sequence (Q16531 whole entry partner) above

CK1α = biological target: T5, CK1α (Homo sapiens, UniProt P48729+Q96SW2); test: Western-blot assay, substrate protein degradation in hPBMCs: CK1α
T5 construct: effects of the compounds of the present disclosure on the expression of target proteins in cells; endogenous in cells; host or cells: human PBMCs (hPBMCs)
T5 sequence (P48729 whole entry): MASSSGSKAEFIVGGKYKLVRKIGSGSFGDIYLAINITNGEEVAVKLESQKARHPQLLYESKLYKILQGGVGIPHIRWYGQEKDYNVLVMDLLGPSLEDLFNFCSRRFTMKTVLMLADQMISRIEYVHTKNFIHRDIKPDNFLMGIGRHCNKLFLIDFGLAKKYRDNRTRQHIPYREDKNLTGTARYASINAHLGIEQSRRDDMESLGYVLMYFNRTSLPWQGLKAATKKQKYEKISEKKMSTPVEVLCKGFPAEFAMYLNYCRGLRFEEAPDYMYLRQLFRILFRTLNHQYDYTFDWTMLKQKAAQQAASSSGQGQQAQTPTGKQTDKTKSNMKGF
T5 sequence (Q96SW2 whole entry): as the sequence (Q96SW2 whole entry) above
T5 sequence (Q16531 whole entry partner): as the sequence (Q16531 whole entry partner) above

GSPT1 = biological target: T6, GSPT1 (Homo sapiens, UniProt P15170+Q96SW2); test: Western-blot assay, substrate protein degradation in hPBMCs: GSPT1
T6 construct: effects of the compounds of the present disclosure on the expression of target proteins in cells; endogenous in cells; host or cells: human PBMCs (hPBMCs)

SMILES | WEE1 substrate protein remaining % (WEE1) | IKZF1 substrate protein remaining % (IKZF1) | IKZF2 substrate protein remaining % (IKZF2) | IKZF3 substrate protein remaining % (IKZF3) | CK1α substrate protein remaining % (CK1α) | GSPT1 substrate protein remaining % (GSPT1)
O=C1CCN(N2Cc3cc(CN4CCC(c5ccnc(Cl)c5Cl)CC4)ccc3C2=O)C(=O)N1 [GT-06390, 1-(5-((4-(2,3-dichloropyridin-4-yl)piperidin-1-yl)methyl)-1-oxoisoindolin-2-yl)dihydropyrimidine-2,4(1H,3H)-dione] | B ("B" is defined as 80%< substrate protein remaining %≤ 100%) | B ("B" is defined as 80%< substrate protein remaining %≤ 100%) | B ("B" is defined as 80%< substrate protein remaining %≤ 100%) | B ("B" is defined as 80%< substrate protein remaining %≤ 100%) | B ("B" is defined as 80%< substrate protein remaining %≤ 100%) | A ("A" is defined as 0% ≤ substrate protein remaining % ≤ 80%)
O=C1CCN(N2Cc3cc(CN4CC=C(c5cncc(Cl)c5)CC4)ccc3C2=O)C(=O)N1 [GT-06394, 1-(5-((5-chloro-3',6'-dihydro-[3,4'-bipyridin]-1'(2'H)-yl)methyl)-1-oxoisoindolin-2-yl)dihydropyrimidine-2,4(1H,3H)-dione] | B ("B" is defined as 80%< substrate protein remaining %≤ 100%) | B ("B" is defined as 80%< substrate protein remaining %≤ 100%) | A ("A" is defined as 0% ≤ substrate protein remaining % ≤ 80%) | B ("B" is defined as 80%< substrate protein remaining %≤ 100%) | A ("A" is defined as 0% ≤ substrate protein remaining % ≤ 80%) | A ("A" is defined as 0% ≤ substrate protein remaining % ≤ 80%)
O=C1CCN(N2Cc3cc(CN4CC=C(c5ncccc5F)CC4)ccc3C2=O)C(=O)N1 [GT-06395, 1-(5-((3-fluoro-3',6'-dihydro-[2,4'-bipyridin]-1'(2'H)-yl)methyl)-1-oxoisoindolin-2-yl)dihydropyrimidine-2,4(1H,3H)-dione] | B ("B" is defined as 80%< substrate protein remaining %≤ 100%) | B ("B" is defined as 80%< substrate protein remaining %≤ 100%) | B ("B" is defined as 80%< substrate protein remaining %≤ 100%) | B ("B" is defined as 80%< substrate protein remaining %≤ 100%) | A ("A" is defined as 0% ≤ substrate protein remaining % ≤ 80%) | A ("A" is defined as 0% ≤ substrate protein remaining % ≤ 80%)
O=C1CCN(N2Cc3cc(CN4CCC(c5ccnc(F)c5F)CC4)ccc3C2=O)C(=O)N1 [GT-06396, 1-(5-((4-(2,3-difluoropyridin-4-yl)piperidin-1-yl)methyl)-1-oxoisoindolin-2-yl)dihydropyrimidine-2,4(1H,3H)-dione] | B ("B" is defined as 80%< substrate protein remaining %≤ 100%) | B ("B" is defined as 80%< substrate protein remaining %≤ 100%) | B ("B" is defined as 80%< substrate protein remaining %≤ 100%) | B ("B" is defined as 80%< substrate protein remaining %≤ 100%) | A ("A" is defined as 0% ≤ substrate protein remaining % ≤ 80%) | B ("B" is defined as 80%< substrate protein remaining %≤ 100%)
O=C1CCN(N2Cc3cc(CN4CC=C(c5ccnc(F)c5F)CC4)ccc3C2=O)C(=O)N1 [GT-06397, 1-(5-((2',3'-difluoro-3,6-dihydro-[4,4'-bipyridin]-1(2H)-yl)methyl)-1-oxoisoindolin-2-yl)dihydropyrimidine-2,4(1H,3H)-dione] | A ("A" is defined as 0% ≤ substrate protein remaining % ≤ 80%) | B ("B" is defined as 80%< substrate protein remaining %≤ 100%) | A ("A" is defined as 0% ≤ substrate protein remaining % ≤ 80%) | B ("B" is defined as 80%< substrate protein remaining %≤ 100%) | B ("B" is defined as 80%< substrate protein remaining %≤ 100%) | A ("A" is defined as 0% ≤ substrate protein remaining % ≤ 80%)
CC1CN(Cc2ccc3c(c2)C(=O)N(N2CCC(=O)NC2=O)C3=O)CC(C)N1C(c1ccccc1)c1ccccc1 (stereo not drawn) [GT-06430, 5-((4-benzhydryl-3,5-dimethylpiperazin-1-yl)methyl)-2-(2,4-dioxotetrahydropyrimidin-1(2H)-yl)isoindoline-1,3-dione] | A ("A" is defined as 0% ≤ substrate protein remaining % ≤ 80%) | A ("A" is defined as 0% ≤ substrate protein remaining % ≤ 80%) | B ("B" is defined as 80%< substrate protein remaining %≤ 100%) | A ("A" is defined as 0% ≤ substrate protein remaining % ≤ 80%) | B ("B" is defined as 80%< substrate protein remaining %≤ 100%) | A ("A" is defined as 0% ≤ substrate protein remaining % ≤ 80%)
CC1CN(Cc2ccc3c(c2)CN(N2CCC(=O)NC2=O)C3=O)CC(C)N1C(c1ccccc1)c1ccccc1 (stereo not drawn) [GT-06431, 1-(5-((4-benzhydryl-3,5-dimethylpiperazin-1-yl)methyl)-1-oxoisoindolin-2-yl)dihydropyrimidine-2,4(1H,3H)-dione] | A ("A" is defined as 0% ≤ substrate protein remaining % ≤ 80%) | A ("A" is defined as 0% ≤ substrate protein remaining % ≤ 80%) | A ("A" is defined as 0% ≤ substrate protein remaining % ≤ 80%) | B ("B" is defined as 80%< substrate protein remaining %≤ 100%) | B ("B" is defined as 80%< substrate protein remaining %≤ 100%) | A ("A" is defined as 0% ≤ substrate protein remaining % ≤ 80%)
O=C1CCN(N2C(=O)c3ccc(CN4CCN(Cc5ccccc5-c5ccc(Cl)cc5)CC4)cc3C2=O)C(=O)N1 [GT-06432, 5-((4-((4'-chloro-[1,1'-biphenyl]-2-yl)methyl)piperazin-1-yl)methyl)-2-(2,4-dioxotetrahydropyrimidin-1(2H)-yl)isoindoline-1,3-dione] | A ("A" is defined as 0% ≤ substrate protein remaining % ≤ 80%) | A ("A" is defined as 0% ≤ substrate protein remaining % ≤ 80%) | B ("B" is defined as 80%< substrate protein remaining %≤ 100%) | B ("B" is defined as 80%< substrate protein remaining %≤ 100%) | B ("B" is defined as 80%< substrate protein remaining %≤ 100%) | A ("A" is defined as 0% ≤ substrate protein remaining % ≤ 80%)
O=C1CCN(N2Cc3cc(CN4CCN(Cc5ccccc5-c5ccc(Cl)cc5)CC4)ccc3C2=O)C(=O)N1 [GT-06433, 1-(5-((4-((4'-chloro-[1,1'-biphenyl]-2-yl)methyl)piperazin-1-yl)methyl)-1-oxoisoindolin-2-yl)dihydropyrimidine-2,4(1H,3H)-dione] | A ("A" is defined as 0% ≤ substrate protein remaining % ≤ 80%) | A ("A" is defined as 0% ≤ substrate protein remaining % ≤ 80%) | A ("A" is defined as 0% ≤ substrate protein remaining % ≤ 80%) | A ("A" is defined as 0% ≤ substrate protein remaining % ≤ 80%) | B ("B" is defined as 80%< substrate protein remaining %≤ 100%) | A ("A" is defined as 0% ≤ substrate protein remaining % ≤ 80%)
Cc1ccsc1C1=CCN(Cc2ccc3c(c2)C(=O)N(N2CCC(=O)NC2=O)C3=O)CC1 [GT-06434, 2-(2,4-dioxotetrahydropyrimidin-1(2H)-yl)-5-((4-(3-methylthiophen-2-yl)-3,6-dihydropyridin-1(2H)-yl)methyl)isoindoline-1,3-dione] | A ("A" is defined as 0% ≤ substrate protein remaining % ≤ 80%) | B ("B" is defined as 80%< substrate protein remaining %≤ 100%) | A ("A" is defined as 0% ≤ substrate protein remaining % ≤ 80%) | A ("A" is defined as 0% ≤ substrate protein remaining % ≤ 80%) | B ("B" is defined as 80%< substrate protein remaining %≤ 100%) | A ("A" is defined as 0% ≤ substrate protein remaining % ≤ 80%)
O=C1CCN(N2C(=O)c3ccc(CN4CC=C(c5ccsc5)CC4)cc3C2=O)C(=O)N1 [GT-06435, 2-(2,4-dioxotetrahydropyrimidin-1(2H)-yl)-5-((4-(thiophen-3-yl)-3,6-dihydropyridin-1(2H)-yl)methyl)isoindoline-1,3-dione] | A ("A" is defined as 0% ≤ substrate protein remaining % ≤ 80%) | B ("B" is defined as 80%< substrate protein remaining %≤ 100%) | A ("A" is defined as 0% ≤ substrate protein remaining % ≤ 80%) | A ("A" is defined as 0% ≤ substrate protein remaining % ≤ 80%) | B ("B" is defined as 80%< substrate protein remaining %≤ 100%) | A ("A" is defined as 0% ≤ substrate protein remaining % ≤ 80%)
